Laboratory results as given in patent publication US20210252015A1, “CERTAIN (2S)-N-[(1S)-1-CYANO-2-PHENYLETHYL]-1,4-OXAZEPANE-2-CARBOXAMIDES FOR TREATING INFLAMMATORY BOWEL DISEASE” (Insmed Incorporated, priority 2018, published 2021).

Key:
[1] = system: colitis induced by the adoptive transfer of sorted naïve T cells into RAG2−/− mice; test: Adoptive T-Cell Transfer Colitis Model, Example 2 (survival, endoscopy, stool consistency, body weight); assay type: in vivo
Procedure: The efficacy of INS1007 in the treatment of colitis induced by the adoptive transfer of sorted naïve T cells into RAG2^−/− mice (“Adoptive T-Cell Transfer Colitis Model”) was evaluated. The Adoptive T-Cell Transfer Colitis Model is an immunological animal model of colitis that provides focused and detailed examination of T cell-mediated pathological mechanisms, and generally responds well to established clinical therapies such as anti-TNFα. The model is described in detail in D. V. Ostanin, et al., T cell transfer model of chronic colitis: concepts, considerations, and tricks of the trade. Am. J. Physiol. Gastrointest. Liver Physiol. 2009; 296(2): G135-46, which is hereby incorporated by reference in its entirety for all purposes.
Example 2 evaluated the effectiveness of INS1007 dosed at 0.3 mg/kg, 1.0 mg/kg, 3.0 mg/kg and 10 mg/kg in the Adoptive T-Cell Transfer Colitis Model. Vehicle (negative control) and an anti-p40 mAb antibody (positive control) were also evaluated.
Mice: Ninety-five (95) male RAG2^−/− mice (n=95) with an average starting body weight (±SEM) of 21.3±0.12 g were obtained from Taconic Biosciences (Germantown, N.Y.). Animals were acclimatized prior to study commencement. During this period, the animals were observed daily in order to reject any that presented in poor condition. Animals were fed with 5053 sterile rodent diet and water was provided ad libitum.
INS1007 Solutions: INS1007 was diluted with 0.5% Hydroxypropylmethylcellulose in Citrate buffer w/0.1% Tween 80 (pH 3.0). Solutions were stored at 4° C. INS1007 solutions were discarded after 3 days and fresh solutions were prepared.
(§1) Anti-p40 mAb solution: Anti-mouse IL-12 p40 (Clone: C17.8) obtained from BioXCell (Cat #: BE0051) was diluted with phosphate buffered saline. Solutions were stored at 4° C. Anti-mouse IL-12 p40 solutions were discarded after 7 days and fresh solutions were prepared.
Groups 1-2 were negative controls; groups 3-6 were treated with INS 1007 and Group 7 was treated with Anti-p40 mAb.
The study included two phases: a T-cell transfer colitis-induction period (T-cell engraftment in FIG. 14) and a treatment period (Veh/1007 TX in FIG. 14). Colitis was induced on Day 0 in 90 RAG2^−/− mice by IP injection (200 μL) of 0.5×10^6 CD44^−/CD62L^+ T-cells (in PBS) isolated and purified from C57Bl/6 […]. Donor cells were processed as follows. Whole spleens were excised from donor C57BL/6 mice and were immediately placed ice-cold PBS. The spleens were dissociated to yield a single cell suspension and the red blood cells were lysed. Spleens were then processed for CD4+ enrichment prior to CD44-CD62L^+ sorting using Miltenyi MACS columns.
Animals in Groups 1-6 were dosed via oral gavage (PO) twice daily (BID) from Days 14 to 41 with INS1007 Solution or vehicle, as indicated in Table 4. Animals in Group 7 were dosed via intraperitoneal (IP) injection once every third day (Q3D) from Day 14 to 39 with Anti-p40 mAb solution.
Animals were observed daily (weight morbidity, survival, presence of diarrhea and/or bloody stool) to assess differences among treatment groups and/or possible toxicity resulting from the treatments.
Each mouse, under isoflurane anesthesia, underwent video endoscopy on Days 14, 28, and 42 using a small animal endoscope (Karl Storz Endoskope, Germany), to assess colitis severity. During each endoscopic procedure, still images and video were recorded to evaluate the extent of colitis and the response to treatment. Colitis severity and Stool consistency were scored using the methods described in Examples 1 and 2. Following endoscopy on day 42, all animals from each treatment group were sacrificed. Following euthanasia, bone marrow (from both femurs and tibias) were collected, lysed, and then snap frozen. The frozen tissue was stored at −80° C.
Weight Loss: Weight loss calculated as a percentage of the starting weight on Day 0 was recorded in all treatment groups.

[2] = system: DSS-induced colitis in C57BL/6 mice; test: DSS-induced colitis murine study, Example 1A (endoscopy, stool consistency, body weight); assay type: in vivo; conditions: for mean endoscopy score: INS1007 1 mg/kg PO BID Day -7 to 20, scale 0-4
Procedure: Mice: Seventy-nine (79) male C57BL/6 mice with an average starting body weight (SEM) of 23.32 g (+1.53 g) were obtained from Charles River Laboratories (Wilmington, Mass.). Animals were acclimatized prior to the study. During this period, the animals were observed daily in order to reject any that presented in poor condition. Animals were fed with 5053 sterile rodent diet and water was provided ad libitum.
INS1007 Solutions: INS1007 was diluted with 0.5% hydroxypropylmethylcellulose in citrate buffer w/0.1% Tween 80 (pH 3.0). Solutions were stored at 4° C. INS1007 solutions were discarded after 3 days and fresh solutions were prepared.
as §1
DSS Induction Solution: Dextran sulfate sodium salt obtained from MP Biomedical (Cat #02160110) was diluted with water. DSS solutions were stored at room temperature.
Groups 1-4 were negative controls; groups 5-7 were treated with INS 1007 and Group 8 was treated with Anti-p40 mAb. ^i The dosing protocol for the Anti-p40 antibody is not shown in FIG. 1.
The study included three phases: a pre-treatment period (Veh/1007 Pretx in FIG. 1); DSS-induction period (DSS in FIG. 1) and a treatment period (Veh/1007 in FIG. 1). Colitis was induced in Groups 3-8 by exposure to 3% DSS Induction Solution from Day 0 to Day 5. Animals in Groups 2 and 4-7 were dosed via oral gavage (PO) twice daily (BID) from Days −7 to 20 with INS1007 Solution or vehicle, as indicated in Table 1. Animals in Group 8 were dosed via intraperitoneal (IP) injection once every third day (Q3D) from Day 0 to 18 with Anti-p40 mAb solution.
All animals were weighed daily and assessed visually for the presence of diarrhea and/or bloody stool at the time of dosing. Each mouse, under isoflurane anesthesia, underwent video endoscopy on Days 10, 14, & 21 using a small animal endoscope (Karl Storz Endoskope, Germany), to assess colitis severity. Colitis severity was scored using a 0-4 scale (0=normal; 1=loss of vascularity; 2=loss of vascularity and friability; 3=friability and erosions; 4=ulcerations and bleeding). Stool consistency was scored during endoscopy using the parameters defined in Table 2. Following endoscopy on day 21, all animals from each treatment group were sacrificed.

[3] = Day 28, INS1007 1 mg/kg (Group 4)
[4] = Day 28, INS1007 3 mg/kg (Group 5)
[5] = Day 28, INS1007 10 mg/kg (Group 6)
[6] = Day 42, INS1007 1 mg/kg (Group 4)
[7] = Day 42, INS1007 3 mg/kg (Group 5)
[8] = Day 42, INS1007 10 mg/kg (Group 6)

## Cn1c(=O)oc2ccc(-c3ccc(C[C@@H](C#N)NC(=O)[C@@H]4CNCCCO4)cc3)cc21 [INS1007, (2S)—N-{(1S)-1-cyano-2-[4-(3-methyl-2-oxo-2,3-dihydro-1,3-benzoxazol-5-yl)phenyl]ethyl}-1,4-oxazepane-2-carboxamide]
[1]; Day 14, INS1007 3 mg/kg (Group 5)
  reduction in mean endoscopy score as compared to vehicle control (Group 2): 22.2%
[1]; [3]
  mean stool consistency score vs vehicle control (Group 2): reductions
  reduction in mean endoscopy score as compared to vehicle control (Group 2): 38.4%
[1]; [4]
  mean stool consistency score vs vehicle control (Group 2): reductions
  reduction in mean endoscopy score as compared to vehicle control (Group 2): 39.5%
[1]; [5]
  mean stool consistency score vs vehicle control (Group 2): reductions
  reduction in mean endoscopy score as compared to vehicle control (Group 2): 15.3%
[1]; [6]
  mean stool consistency score vs vehicle control (Group 2): reductions
  reduction in mean endoscopy score as compared to vehicle control (Group 2): 33.5%
[1]; [7]
  mean stool consistency score vs vehicle control (Group 2): reductions
  reduction in mean endoscopy score as compared to vehicle control (Group 2): 42.7%
[1]; [8]
  mean stool consistency score vs vehicle control (Group 2): largest reductions
  reduction in mean endoscopy score as compared to vehicle control (Group 2): 35.0%
[1]; INS1007 3 mg/kg (Group 5), Days 0 to 42
  weight loss compared to vehicle control (Group 2), body weight carried forward: reduced
[1]; INS1007 3 mg/kg (Group 5), log-rank test
  survival vs vehicle control: significantly improved
[1]; INS1007 3 mg/kg PO BID Day 14 to 41 (Group 5), Days 0 to 42, vehicle control 53.3%
  survival: 95.86%
[2]; Day 10, DSS-Vehicle control 2.67
  mean endoscopy score: 2.25
[2]; Day 14, DSS-Vehicle control 2.79
  mean endoscopy score: 1.92
[2]; Day 21, DSS-Vehicle control 2.36
  mean endoscopy score: 2.08
[2]; INS1007 PO BID, vs DSS-vehicle control (peak loss -18.46% Day 11)
  weight loss (percentage of starting weight on Day 0): modestly attenuated weight loss
[2]; INS1007 at all three concentrations (0.1, 1, 10 mg/kg PO BID), Days 10, 14, 21, particularly Days 14 and 21
  stool consistency scores: modest decreases in stool scores
